According to patent US4005217A, “Treatment of helminth infections with substituted phenyl-thiourea derivatives” (May & Baker Limited, priority 1970, dated 1977):
Values after ≈ are worked out from the molar mass of the structure shown. Where a name gives a salt, the structure may show the parent alone.

Columns and labels:
[1] = system: Nippostrongylus brasiliensis eggs; test: In vitro activity against roundworms (egg hatching and larvae); type: cell-based; details: 96 h, tested at 100, 10, 1 and 0.1 μg/ml, inhibited or delayed hatching of eggs, or killed, retarded growth or reduced activity of larvae during 4 days, read-out: M.I.C. (minimum inhibitory concentration)
Experimental: Compounds of formula I were tested at concentrations of 100 μg/ml, 10 μg/ml, 1 μg/ml and 0.1 μg/ml in small glass containers. If the compound was not soluble in water, a volatile organic medium, e.g. acetone, chloroform, ethanol or methanol was used. An amount of material appropriate for each final concentration was measured and placed in duplicate test containers and if an organic solvent was used it was allowed to evaporate completely. Nippostrongylus brasiliensis eggs were recovered by saturated saline centrifugal flotation from the faeces of rats heavily infected with third stage larvae six days previously. They were washed several times in water and suspended in water in a suitable concentration. From 25-50 eggs were placed in each container and the final volume was made up by the addition of a very dilute aqueous suspension of mouse faeces which served as the growth medium. The minimum inhibitory concentrations of each compound (M.I.C.), shown in the following Table V was the minimum concentration in μg/ml total liquid volume at which it inhibited or delayed hatching of eggs, or at which it killed, retarded growth or reduced activity of larvae during the 4 days after beginning the test.

[2] = system: Trichostrongylus colubriformis; test: Activity against mature adult stages in lambs, oral treatment (Table III); type: in vivo; details: 120 h, 15 mg/kg oral, read-out: Mean percentage reduction in worm burdens, T.colubriformis
Experimental: (§1) ii. 20 Worm-free lambs were each infected with H. contortus (approximately 5,600), T. axei (approximately 9,300) and T. colubriformis (approximately 10,000) infective larvae. After 22 days, 16 lambs were treated orally with 15 mg/kg animal body weight of the 8 test compounds, i.e. 2 lambs per compound, against the mature adult stages of the worms. 27 Days after infection, all 20 lambs were killed for post-mortem worm counts and the burden of each worm species in the 16 treated animals compared with those in the remaining 4 untreated control animals.

Trichostrongylus axei [3] = test: as above; type: in vivo; details: 120 h, 15 mg/kg oral, read-out: Mean percentage reduction in worm burdens, T.axei
Experimental: as §1

Haemonchus contortus [4] = test: as above; type: in vivo; details: 120 h, 15 mg/kg oral, read-out: Mean percentage reduction in worm burdens, H.contortus
Experimental: as §1

[5] = system: influenza virus type A2 /Hong Kong/5/68; type: in vivo; details: mice, 250 mg/kg oral 3 hours before and 1 hour after infection; pooled lungs 24 hours after infection; greatest dilution producing agglutination
[6] = system: Nippostrongylus brasiliensis; test: Test 2: activity against roundworms in rats, treatment 24 hours after infection, worm counts 6 days after dosing; type: in vivo; details: rats; for inhibition in vivo at 1000 mg/kg / worm damage: Test 2, 1000 mg/kg oral
Experimental: Test 2 -- Rats were infected with 100 Nippostrongylus brasiliensis larvae each, by the subcutaneous route. After 24 hours the rats were randomised and allotted to groups of 5 animals each, ready for treatment. Doses of the test compound were then administered to each group by the oral, subcutaneous and intraperitoneal routes respectively, one group of 10 animals being left untreated as a control. All the rats were killed for post-mortem worm counts 6 days after dosing. The activities, expressed in terms of the percentage reductions in mean worm load of the treated groups or damage to the worms compared with the untreated control group, are given below in Table I.

[7] = system: Nippostrongylus brasiliensis; test: Test 1: activity against roundworms in rats, treatment 6 days after infection (patent infection), worm counts 48 hours after treatment; type: in vivo
Experimental: Test 1 - Rats were infected with 100 Nippostrongylus brasiliensis larvae each, by the subcutaneous route. After 6 days, when the infection was patent, the rats were randomised and alloted to groups of 10 animals each, ready for treatment. One group was used for each dose level of the test compound and, in each experiment, one group was left untreated as a control. All the rats were killed for post-mortem worm counts 48 hours after treatment. The activity, expressed in terms of the percentage reduction in mean worm load of the treated group compared with the untreated group, is shown in Table I.

[8] = system: Trichostrongylus colubriformis; test: Activity against 4th larval stages in lambs, oral treatment (Table II); type: in vivo; details: 100 mg/kg oral
Experimental: (§2) i. 9 Worm-free lambs were each infected with H.contortus (approximately 9,000), T. axei (approximately 7,000) and T. colubriformis (approximately 12,000) infective larvae. After 7 days, 4 lambs were treated orally with 100 mg/kg animal body weight of the 2 test compounds, i.e. 2 lambs per compound, against the 4th larval stages of the worms. 23 Days after infection, all 9 lambs were killed for post-mortem worm counts and the burdens of each worm species in the 4 treated animals compared with those in the remaining 5 untreated control animals.

Trichostrongylus axei [9] = test: as above; type: in vivo; details: 100 mg/kg oral
Experimental: as §2

Haemonchus contortus [10] = test: as above; type: in vivo; details: 100 mg/kg oral
Experimental: as §2

[11] = system: naturally acquired strongyle infections; test: Effect on faecal egg output in naturally infected sheep (ewes); type: in vivo, O. circumcincta, H. contortus and Cooperia spp.; details: 50 mg/kg oral
Experimental: Faecal material from sheep with naturally acquired strongyle infections was incubated for 7 days at 27° C. followed by identification of the infective larvae present. Amongst those species present were O. circumcincta, H. contortus and Cooperia spp.
Egg counts were carried out on individual samples of faeces taken from the animals two and one day previous to dosings.
Egg counts were made using the McMaster technique. If a count by this technique was negative, a positive/negative egg flotation determination was made.
A group of 3 ewes was treated orally with 50 mg/kg animal body weight of test compound and further egg counts made at intervals for 3 weeks after treatment.

[12] = Nippostrongylus brasiliensis, 144 h, read-out: Percentage reduction in N.brasiliensis load
[13] = Nippostrongylus brasiliensis, po, 48 h, Test 1, 1000 mg/kg oral, read-out: Percentage reduction in N.brasiliensis load

Structure (SMILES) | MIC [1] | inhibition in vivo at 15 mg/kg [2] | inhibition in vivo at 15 mg/kg (Trichostrongylus axei [3]) | inhibition in vivo at 15 mg/kg (Haemonchus contortus [4]) | Haemagglutinin titre-treated animals [5] | inhibition in vivo at 1000 mg/kg [6, 12] | worm damage [6] | also measured
CCCCc1ccc(NC(=S)NC(=O)OC)c(NC=O)c1 [1-methoxycarbonyl-3-(4-n-butyl-2-formamidophenyl)thiourea] | 0.1 µg/mL (≈ 0.323 µM) | 36.9% | 84.2% | 84.3% |  |  |  | 
CCCCc1ccc(NC(=O)C2CC2)c(NC(=S)NC(=O)OC)c1 [1-methoxycarbonyl-3-(2-cyclopropylcarbonamido-5-n-butylphenyl)thiourea] | 0.1 µg/mL (≈ 0.286 µM) |  |  |  | 1/128 |  |  | 
CCCCc1ccc(NC(=O)OCC)c(NC(=S)NC(=O)OC)c1 [1-methoxycarbonyl-3-(5-n-butyl-2-ethoxycarbonylaminophenyl)thiourea] | 10 µg/mL (≈ 28.3 µM) | 40.1% | 78.6% | 79.6% | 1/64 | 96% | worm damage | 
COC(=O)NC(=S)Nc1ccc(NC(=O)OC(C)C)cc1NC=O [1-methoxycarbonyl-3-(2-formamido-4-isopropoxycarbonylaminophenyl)thiourea] |  | 29.6% | 70.8% | 40.1% |  |  |  | 
CCCCc1ccc(NC(=S)NC(=O)OC)c(NC(C)=O)c1 [1-methoxycarbonyl-3-(2-acetamido-4-n-butylphenyl)thiourea] | 0.1 µg/mL (≈ 0.309 µM) | 6.7% | 66.9% | 76.7% |  | 98% | worm damage | worm damage ([7]; Test 1, 500 mg/kg oral): worm damage; Mean percentage reduction in worm burdens, T.colubriformis [8]: 100%; Mean percentage reduction in worm burdens, T.axei (Trichostrongylus axei [9]): 99.5%; Mean percentage reduction in worm burdens, H.contortus (Haemonchus contortus [10]): 99.9%
COC(=O)NC(=S)Nc1ccc(NC(=O)OC(C)C)cc1N [1-methoxycarbonyl-3-(2-amino-4-isopropoxycarbonylaminophenyl)thiourea] | 100 µg/mL (≈ 306 µM) | 83% | 94.6% | 97.7% |  | 100% |  | worm damage ([7]; Test 1, 500 mg/kg oral): worm damage
CCOC(=O)NC(=S)Nc1cc(NC(=O)OC(C)C)ccc1NC(C)=O [1-ethoxycarbonyl-3-(2-acetamido-5-isopropoxycarbonylaminophenyl)thiourea] |  |  |  |  | 1/256 |  |  | 
CCCCc1ccc(NC(=S)NC(=O)OC)c(N)c1 [1-methoxycarbonyl-3-(2-amino-4-n-butylphenyl)thiourea] | 0.1 µg/mL (≈ 0.355 µM) |  |  |  |  |  |  | inhibition in vivo at 500 mg/kg ([7]; Nippostrongylus brasiliensis, po, 48 h, Test 1, 500 mg/kg oral, read-out: Percentage reduction in N.brasiliensis load): 75%; worm damage ([7]; Test 1, 500 mg/kg oral): worm damage; Mean percentage reduction in worm burdens, T.colubriformis [8]: 100%; Mean percentage reduction in worm burdens, T.axei (Trichostrongylus axei [9]): 99.5%; Mean percentage reduction in worm burdens, H.contortus (Haemonchus contortus [10]): 100%
COC(=O)NC(=S)Nc1ccc(NC(=O)OC)cc1N [1-methoxycarbonyl-3-(2-amino-4-methoxycarbonylaminophenyl)thiourea] | 100 µg/mL (≈ 335 µM) |  |  |  | 1/512 | 100% |  | inhibition in vivo at 1000 mg/kg [7, 13]: 100%; inhibition in vivo at 250 mg/kg ([6]; Nippostrongylus brasiliensis, 144 h, Test 2, 250 mg/kg oral, read-out: Percentage reduction in N.brasiliensis load): 99%; inhibition in vivo at 500 mg/kg ([6]; Nippostrongylus brasiliensis, 144 h, Test 2, 500 mg/kg oral, read-out: Percentage reduction in N.brasiliensis load): 99%
COC(=O)NC(=S)Nc1ccccc1NC(=O)C[N+](C)(C)C [1-methoxycarbonyl-3-(2-trimethylammoniumacetamidophenyl)thiourea iodide] | 1 µg/mL |  |  |  | 1/256 |  | worm damage | 
CCCCc1ccc(NC(C)=O)c(NC(=S)NC(=O)OC)c1 [1-methoxycarbonyl-3-(2-acetamido-5-n-butylphenyl)thiourea] | 0.1 µg/mL (≈ 0.309 µM) | 95% | 98.2% | 82.1% |  | 99% | worm damage | worm damage ([7]; Test 1, 1000 mg/kg oral): worm damage
COC(=O)NC(=S)Nc1ccccc1N [1-methoxycarbonyl-3-(2-aminophenyl)thiourea] | 0.1 µg/mL (≈ 0.444 µM) |  |  |  |  |  |  | Percentage reduction in N.brasiliensis load ([7]; Test 1, 1000 mg/kg oral): 99%; worm damage ([7]; Test 1, 1000 mg/kg oral): worm damage; Mean faecal egg count/gm. faeces ([11]; 1 day after treatment): 450 /gm. faeces; Mean faecal egg count/gm. faeces ([11]; 2 days before treatment (baseline)): 250 /gm. faeces; Mean faecal egg count/gm. faeces ([11]; 4 days after treatment): 250 /gm. faeces; Mean faecal egg count/gm. faeces ([11]; 6 days after treatment): 50 /gm. faeces; Mean faecal egg count/gm. faeces ([11]; 8 days after treatment): 134 /gm. faeces; Mean faecal egg count/gm. faeces ([11]; 15 days after treatment): 75 /gm. faeces; Mean faecal egg count/gm. faeces ([11]; 18 days after treatment): 100 /gm. faeces; Mean faecal egg count/gm. faeces ([11]; 20 days after treatment): 50 /gm. faeces; Mean faecal egg count/gm. faeces ([11]; 22 days after treatment): 50 /gm. faeces
COC(=O)NC(=S)Nc1cc(NC(=O)OC(C)C)ccc1NC=O [1-methoxycarbonyl-3-(2formamido-5-isopropoxycarbonylaminophenyl)thiourea] |  |  |  |  | 1/256 |  |  | 
CCCCc1ccc(NC(=S)NC(=O)OC)c(NC(=O)C2CC2)c1 [1-methoxycarbonyl-3-(4-n-butyl-2-cycloproplycarbonamidophenyl)thiourea] | 0.1 µg/mL (≈ 0.286 µM) | 27.1% | 57.6% | 58.4% |  |  |  | 
CCOC(=O)NC(=S)Nc1ccc(F)cc1N [1-ethoxycarbonyl-3-(2-amino-4-fluorophenyl)thiourea] | 1 µg/mL (≈ 3.89 µM) |  |  |  | 1/32 | 50% | worm damage | 
CCCCN(C)CC(=O)Nc1ccccc1NC(=S)NC(=O)OCC [1-ethoxycarbonyl-3-(2-N-n-butyl-N-methylaminoacetamidophenyl)thiourea hydrochloride] | 1 µg/mL |  |  |  | 1/4 | 99% | worm damage | inhibition in vivo at 1000 mg/kg [7, 13]: 86%; worm damage ([7]; Test 1, 1000 mg/kg oral): worm damage
CCCCc1ccc(NC=O)c(NC(=S)NC(=O)OC)c1 [1-methoxycarbonyl-3-(5n-butyl-2-formamidophenyl)thiourea] | 0.1 µg/mL (≈ 0.323 µM) |  |  |  | 1/32 | 96% | worm damage | 
Nc1ccccc1NC(=S)NC(=O)OCCCl [1-(2-chloroethoxycarbonyl)-3-(2-aminophenyl)thiourea] | 100 µg/mL (≈ 365 µM) |  |  |  | 1/32 | 96% | worm damage | 
